Common to all, as to experiment: plasmid pCT74 unwinding, agarose gel
Holding throughout (assay type): biochemical
What all share (settings): AOH 4 µg/mL (Fig 6; 1 µg in a 20 µL reaction), 5 min pre-incubation, 37°C, Mg2+; qualitative inhibition; no ATP listed

One experiment has as its target T1, Topc (Staphylococcus aureus, UniProt P0A0K8+P20831).
T1 construct: gene gyrA; Top1 and Top2 combined; each in pET28a, His-tagged, E. coli BL21(DE3)

The target in another experiment is T2, Top3 (Staphylococcus aureus, UniProt Q5HGI2).
T2 construct: gene topA; full gene in pET28a, His-tagged, E. coli BL21(DE3), Ni column; tag kept

A further experiment concerns the target T3, Top4 (Staphylococcus aureus, UniProt Q99S17).
T3 construct: gene topB; full gene in pET28a, His-tagged, E. coli BL21(DE3), Ni column; tag kept

Another experiment deals with T4, Top1 (Staphylococcus aureus, UniProt P20831).
T4 construct: gene gyrA; full gene in pET28a, His-tagged, E. coli BL21(DE3), Ni column; tag kept
T4 sequence (P20831 whole entry): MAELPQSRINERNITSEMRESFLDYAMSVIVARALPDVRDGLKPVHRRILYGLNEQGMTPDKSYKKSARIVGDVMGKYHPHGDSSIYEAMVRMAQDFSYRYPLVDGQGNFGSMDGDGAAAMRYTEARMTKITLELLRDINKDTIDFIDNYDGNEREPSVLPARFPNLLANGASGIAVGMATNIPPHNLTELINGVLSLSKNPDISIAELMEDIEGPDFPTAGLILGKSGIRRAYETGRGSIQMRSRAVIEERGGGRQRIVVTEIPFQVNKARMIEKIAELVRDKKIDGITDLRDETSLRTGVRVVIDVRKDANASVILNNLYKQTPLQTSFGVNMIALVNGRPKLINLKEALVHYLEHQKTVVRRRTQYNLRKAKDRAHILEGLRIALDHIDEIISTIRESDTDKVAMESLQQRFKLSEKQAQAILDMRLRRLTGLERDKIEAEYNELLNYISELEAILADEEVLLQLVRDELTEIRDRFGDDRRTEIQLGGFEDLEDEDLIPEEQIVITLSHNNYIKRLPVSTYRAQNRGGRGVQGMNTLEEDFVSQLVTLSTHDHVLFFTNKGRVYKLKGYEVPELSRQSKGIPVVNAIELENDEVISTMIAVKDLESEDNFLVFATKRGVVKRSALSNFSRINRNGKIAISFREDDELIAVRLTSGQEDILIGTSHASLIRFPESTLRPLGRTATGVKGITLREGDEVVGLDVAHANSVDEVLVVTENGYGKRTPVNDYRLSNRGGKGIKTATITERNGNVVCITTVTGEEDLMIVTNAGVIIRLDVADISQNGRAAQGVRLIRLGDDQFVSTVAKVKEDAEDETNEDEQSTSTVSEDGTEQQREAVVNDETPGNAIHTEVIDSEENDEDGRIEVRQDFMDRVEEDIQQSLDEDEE

T3 sequence (Q99S17 whole entry): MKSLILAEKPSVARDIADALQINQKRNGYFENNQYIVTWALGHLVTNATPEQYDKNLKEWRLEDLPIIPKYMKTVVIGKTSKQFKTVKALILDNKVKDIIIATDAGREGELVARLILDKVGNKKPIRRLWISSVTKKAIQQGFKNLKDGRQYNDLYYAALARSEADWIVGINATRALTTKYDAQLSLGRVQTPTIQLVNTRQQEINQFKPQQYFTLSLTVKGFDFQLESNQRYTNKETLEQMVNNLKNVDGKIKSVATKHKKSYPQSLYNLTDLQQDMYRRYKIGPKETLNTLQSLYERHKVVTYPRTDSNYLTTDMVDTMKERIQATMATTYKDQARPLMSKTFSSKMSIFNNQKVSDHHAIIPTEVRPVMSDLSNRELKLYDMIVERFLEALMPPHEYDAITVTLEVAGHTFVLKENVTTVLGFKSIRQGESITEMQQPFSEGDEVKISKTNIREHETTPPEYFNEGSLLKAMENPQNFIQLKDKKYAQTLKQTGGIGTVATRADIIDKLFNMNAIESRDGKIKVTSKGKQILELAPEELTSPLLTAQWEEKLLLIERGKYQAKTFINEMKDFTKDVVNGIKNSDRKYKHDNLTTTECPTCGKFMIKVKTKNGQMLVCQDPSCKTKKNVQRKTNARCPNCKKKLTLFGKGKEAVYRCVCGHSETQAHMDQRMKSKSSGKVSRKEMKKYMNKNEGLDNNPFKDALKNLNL
T2 sequence (Q5HGI2 whole entry): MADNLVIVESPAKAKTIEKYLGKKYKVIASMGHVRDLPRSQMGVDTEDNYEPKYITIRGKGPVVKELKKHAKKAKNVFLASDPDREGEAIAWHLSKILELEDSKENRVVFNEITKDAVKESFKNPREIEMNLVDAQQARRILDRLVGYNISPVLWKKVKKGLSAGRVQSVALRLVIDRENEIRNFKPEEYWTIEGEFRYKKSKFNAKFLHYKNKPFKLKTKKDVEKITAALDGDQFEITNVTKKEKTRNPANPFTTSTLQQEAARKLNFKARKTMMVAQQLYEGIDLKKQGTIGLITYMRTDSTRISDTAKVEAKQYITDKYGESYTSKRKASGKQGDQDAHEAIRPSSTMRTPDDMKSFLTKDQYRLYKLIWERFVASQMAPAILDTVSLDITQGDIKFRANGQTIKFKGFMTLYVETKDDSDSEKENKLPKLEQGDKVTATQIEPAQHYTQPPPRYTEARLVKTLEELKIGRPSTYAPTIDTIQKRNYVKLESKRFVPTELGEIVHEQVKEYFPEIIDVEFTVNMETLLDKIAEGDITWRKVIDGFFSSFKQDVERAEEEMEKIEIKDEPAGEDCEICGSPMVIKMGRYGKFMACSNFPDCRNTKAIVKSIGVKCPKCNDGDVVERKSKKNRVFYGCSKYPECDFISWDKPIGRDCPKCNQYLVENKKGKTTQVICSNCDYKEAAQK
T1 sequence (P20831 whole entry): as the sequence (P20831 whole entry) above
T1 sequence (P0A0K8 2-644): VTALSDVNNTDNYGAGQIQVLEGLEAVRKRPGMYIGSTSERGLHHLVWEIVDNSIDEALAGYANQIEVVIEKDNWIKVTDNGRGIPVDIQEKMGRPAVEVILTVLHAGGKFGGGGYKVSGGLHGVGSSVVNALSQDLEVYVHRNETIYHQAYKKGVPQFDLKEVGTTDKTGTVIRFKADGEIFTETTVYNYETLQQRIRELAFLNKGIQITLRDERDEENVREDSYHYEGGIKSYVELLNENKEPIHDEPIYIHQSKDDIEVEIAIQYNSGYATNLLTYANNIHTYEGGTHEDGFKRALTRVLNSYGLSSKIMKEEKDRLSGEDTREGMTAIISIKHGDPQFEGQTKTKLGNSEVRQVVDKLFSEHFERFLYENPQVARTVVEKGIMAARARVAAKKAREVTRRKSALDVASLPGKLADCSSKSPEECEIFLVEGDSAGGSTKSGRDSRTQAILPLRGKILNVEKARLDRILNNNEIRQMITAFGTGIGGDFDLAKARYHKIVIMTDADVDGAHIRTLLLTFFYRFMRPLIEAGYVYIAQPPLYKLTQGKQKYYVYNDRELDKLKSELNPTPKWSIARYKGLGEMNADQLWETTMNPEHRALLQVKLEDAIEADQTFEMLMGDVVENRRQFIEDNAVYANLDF

As for `Cc1cc(O)cc2oc(=O)c3c(O)cc(O)cc3c12` [compound 1, alternariol], the “plasmid pCT74 unwinding, agarose gel” value at Topc, on Top3, on Top4 and at Top1 was “AOH effectively blocked the unwinding activities of the above four topoisomerases” throughout.

The values above are taken from paper PMC11022538, “Antibacterial insights into alternariol and its derivative alternariol monomethyl ether produced by a marine fungus” (Applied and Environmental Microbiology, 2024).
